According to US7879914B2, “Methods for treating viral infections using polyamine analogs” (Pathlogica LLC, priority 2005, dated 2011):

Columns and labels:
[1] = system: SIVmac251; assay: SIVmac251-infected, CD8-depleted animals, 250 mg/m^2 on alternate weeks; format: in vivo, rhesus macaque
Description: These experiments once again used SIVmac251-infected, CD8-depleted animals, and again treatment was initiated at five days p.i. For this experiment, however, 250 mg/m^2 PA-001 (MGBG) was used and the animals were treated on alternate weeks, as is done in humans. Two animals were SIVmac251-infected, CD8-depleted, and PA-001 treated, and two were not drug treated, SIVmac251-infected, CD8-depleted controls. As of the time this study was conducted, the treated animals had received four doses of PA-001 and lived past day 55. In contrast, the non-treated animals developed AIDS and SIV encephalitis (SIVE) and in fact, one of the CD8-depleted, non-treated animals had died of AIDS and SIVE and the second non PA-001 treated animal was scheduled for sacrifice due to AIDS.
SIV-infected, CD8-depleted animals without PA-001 treatment (EJ02 and EL95) had higher counts of total monocytes (top) and the CD14+CD16+ subset (bottom). In fact, one of the untreated animals (EJ02) died of AIDS and SIVE at day 55 p.i.

[2] = system: HIV proviral DNA; assay: HIV proviral load after exposure of mononuclear cells in culture (Example 7); format: cell-based
Description: Mononuclear cells from HIV infected individuals were isolated and exposed to PA-001 in culture under non-adherent conditions for five days. The cells were then separated into CD3+ and CD14+ fractions via antibody-coated magnetic beads using a Miltenyi apparatus. The “-/-” samples represent flow thru after CD3+ and CD14+ cells were removed. Genomic DNA was prepared and then amplified with HIV specific primers and primers homologous to the single copy gene cJun. Results with HIV specific primers were normalized to those obtained with cJun. The number of HIV DNA copies per cellular DNA equivalent after exposure of mononuclear cell cultures from HIV infected individuals to PA-001 under non-adherent conditions for five days is shown in FIG. 7. Results with HIV specific primers were normalized to those obtained with cJun. Each bar represents the mean of three separate determinations. The error bar indicates one standard deviation from the mean. The numbers under the sample designations indicate the % of CD16+ monocytes killed by PA-001. ND=not done.

[3] = system: SIVmac251; assay: SIVmac251-infected, CD8-depleted rhesus macaques, escalating doses; format: in vivo, rhesus macaque
Description: For these experiments, rhesus macaques were infected with SIVmac251 and depleted of CD8+ T lymphocytes by administration of a humanized CD8-depleting antibody. […] These monkeys were then treated with escalating doses of MGBG.
The animals were treated with MGBG (PA-001) beginning five days post infection (p.i.) with 200 mg/m^2 PA-001, and then treated 7 and 14 days later with 300 mg/m^2 and 400 mg/m^2, respectively of PA-001.
Rhesus macaques similar to those described in Example 9 were used for these studies. An SIVmac251-infected, CD8-depleted monkey was treated with PA-001 (MGBG) beginning five days p.i. with 200 mg/m^2 PA-001, and then treated 7 and 14 days later with 300 mg/m^2 and 400 mg/m^2, respectively of PA-001. A control monkey was SIVmac251-infected and CD8-depleted, but not treated with PA-001. Blood macrophages from control and treated monkeys were sorted every week into three subsets: CD14+/16−, CD14+/16+ and CD14−/16+ where CD14− indicates a low level of CD14 expression. Quantitative SIV PCR analysis of the sorted subsets was subsequently performed.

[4] = system: CD14+ CD16+ monocytes; assay: In vitro killing of cultured rhesus macaque monocytes; format: cell-based
Description: Dose response experiments with MGBG were performed to assess its ability to kill CD14+ CD16+ monocytes in nonadherent PBMC cultures.

SMILES: CC(/C=N/NC(=N)N)=N\NC(=N)N [MGBG]
- CD14+ and CD16+ monocyte populations ([1]; detailed flow cytometry): significant decreases
- survival of treated animals ([1]; four doses of 250 mg/m^2, alternate weeks): > 55 days
- absolute numbers of total monocytes ([1]; vs non-treated animals, FIG. 11): lower absolute numbers
- HIV proviral load in cells that neither bound to CD14 or CD3 antibodies ([2]; FIG. 7B): effective in reducing
- yield of HIV DNA in T cells ([2]; five days, CD3+ fraction): generally decreased slightly
- HIV proviral load in CD14+ cells ([2]; five days, non-adherent conditions): significant decreases
- levels of CD14+CD16+ monocytes in blood ([3]; 200, 300, 400 mg/m^2 from five days p.i., by day 21 p.i.): depleted below detectable levels
- perivascular cuffs and virus in the CNS ([3]; 21 days p.i., preliminary histopathological analysis): did not have perivascular cuffs or detectable virus
- SIV DNA in sorted blood macrophage subsets ([3]; after the first and second dose, quantitative SIV PCR): no longer had any detectable SIV DNA
- decrease in Mac387 stained monocyte/macrophage cell number in lymph node ([3]; compared to untreated animals): 50-80%
- plasma virus versus control ([3]; treated animals vs untreated control): did not show significant differences
- activated monocytes killed ([4]; 10 μM, five-day assay, monkey n=4): 80%
- decrease of CD14+ CD16+ monocytes, dose dependence ([4]; nonadherent PBMC cultures, five days): dose-dependent decrease
